# Test results as given in patent US8183238B2, “Bicyclic and tricyclic compounds as KAT II inhibitors” (priority 2009, dated 2012).
# Structures can show the parent of a compound that is named as a salt.
# Target: human KAT II (hKAT II) enzyme (Homo sapiens, UniProt Q8N5Z0)
# Experiment: KAT II Inhibition Spectra Assay
# Assay type: biochemical
# Settings: Table 6; hKAT II, decrease in OD370, 37° C., 15-20 h; read-out: KATII IC50
# In short: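 hKAT II (15 nM, 3× stock) converts L-kynurenine (3 mM, 3× stock) with α-ketoglutarate and PLP in Tris acetate; 15–20 h at 37 °C. Inhibition of the OD370 decrease read versus DMSO wells across a concentration range gives IC50.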
# Chain of human KAT II (hKAT II) enzyme (Q8N5Z0 30-425): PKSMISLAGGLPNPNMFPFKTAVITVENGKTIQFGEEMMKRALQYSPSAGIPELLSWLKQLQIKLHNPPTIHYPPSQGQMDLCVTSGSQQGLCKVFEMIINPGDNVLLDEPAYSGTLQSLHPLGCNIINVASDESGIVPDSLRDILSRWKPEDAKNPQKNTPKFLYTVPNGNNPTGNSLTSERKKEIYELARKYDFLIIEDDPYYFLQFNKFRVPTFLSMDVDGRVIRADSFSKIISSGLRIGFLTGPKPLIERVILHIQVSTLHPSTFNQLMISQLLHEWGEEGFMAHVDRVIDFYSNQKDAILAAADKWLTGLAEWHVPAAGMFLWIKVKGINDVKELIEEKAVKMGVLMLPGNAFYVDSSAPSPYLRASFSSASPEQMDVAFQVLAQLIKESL
row,SMILES,IC50
1,"N[C@H]1Cc2cc(Oc3ccc(F)cc3Cl)ccc2N(O)C1=O [Example 161, (3S)-3-amino-6-(2-chloro-4-fluorophenoxy)-1-hydroxy-3,4-dihydroquinolin-2(1H)-one, trifluoroacetate salt]",54 nM
2,"N[C@H]1Cc2cc(Oc3ccc(Cl)c(Cl)c3)ccc2N(O)C1=O [Example 163, (3S)-3-amino-6-(3,4-dichlorophenoxy)-1-hydroxy-3,4-dihydroquinolin-2(1H)-one, trifluoroacetate salt]",60 nM
3,"Cc1ccc(F)cc1Oc1ccc2c(c1)C[C@H](N)C(=O)N2O [Example 165, (3S)-3-amino-6-(5-fluoro-2-methylphenoxy)-1-hydroxy-3,4-dihydroquinolin-2(1H)-one, trifluoroacetate salt]",96.6 nM
4,"N[C@H]1Cc2cc(Oc3ccc(Cl)c(F)c3)ccc2N(O)C1=O [Example 167, (3S)-3-amino-6-(4-chloro-3-fluorophenoxy)-1-hydroxy-3,4-dihydroquinolin-2(1H)-one, trifluoroacetate salt]",105 nM
5,"N[C@H]1Cc2cc(Oc3cncc(Cl)c3)ccc2N(O)C1=O [Example 170, (3S)-3-amino-6-[(5-chloropyridin-3-yl)oxy]-1-hydroxy-3,4-dihydroquinolin-2(1H)-one, ammonium salt]",28.9 nM
6,"COc1ccc(Oc2ccc3c(c2)CC(N)C(=O)N3O)cn1 (stereo not shown) [Example 171, 3-amino-1-hydroxy-6-[(6-methoxypyridin-3-yl)oxy]-3,4-dihydroquinolin-2(1H)-one, ammonium salt]",42.8 nM

# The next lines start with the values.
row,IC50,SMILES
1,109 nM,"N[C@H]1Cc2cc(Oc3ccc(F)c(C(F)(F)F)c3)ccc2N(O)C1=O [Example 159, (3S)-3-amino-6-[4-fluoro-3-(trifluoromethyl)phenoxy]-1-hydroxy-3,4-dihydroquinolin-2(1H)-one, trifluoroacetate salt]"
2,101 nM,"N[C@H]1Cc2cc(Oc3cccc(C(F)(F)F)c3F)ccc2N(O)C1=O [Example 160, (3S)-3-amino-6-[2-fluoro-3-(trifluoromethyl)phenoxy]-1-hydroxy-3,4-dihydroquinolin-2(1H)-one, trifluoroacetate salt]"
3,46.7 nM,"N[C@H]1Cc2cc(Oc3ccc(F)c(F)c3)ccc2N(O)C1=O [Example 162, (3S)-3-amino-6-(3,4-difluorophenoxy)-1-hydroxy-3,4-dihydroquinolin-2(1H)-one, trifluoroacetate salt]"
4,42.2 nM,"N#Cc1ccc(Oc2ccc3c(c2)C[C@H](N)C(=O)N3O)cc1C(F)(F)F [Example 164, 4-{[(3S)-3-amino-1-hydroxy-2-oxo-1,2,3,4-tetrahydroquinolin-6-yl]oxy}-2-(trifluoromethyl)benzonitrile, trifluoroacetate salt]"
5,128 nM,"N[C@H]1Cc2cc(Oc3cc(F)cc(C(F)(F)F)c3)ccc2N(O)C1=O [Example 166, (3S)-3-amino-6-[3-fluoro-5-(trifluoromethyl)phenoxy]-1-hydroxy-3,4-dihydroquinolin-2(1H)-one, trifluoroacetate salt]"
6,54.3 nM,"N[C@H]1Cc2cc(Oc3cc(F)cc(Cl)c3)ccc2N(O)C1=O [Example 168, (3S)-3-amino-6-(3-chloro-5-fluorophenoxy)-1-hydroxy-3,4-dihydroquinolin-2(1H)-one, trifluoroacetate salt]"
7,123 nM,"N[C@H]1Cc2cc(Oc3cccc(OC(F)(F)F)c3)ccc2N(O)C1=O [Example 169, (3S)-3-amino-1-hydroxy-6-[3-(trifluoromethoxy)phenoxy]-3,4-dihydroquinolin-2(1H)-one, trifluoroacetate salt]"
